Experimental findings from ChEMBL document CHEMBL2311251, “Synthesis and structure-activity relationship of piperidine-derived non-urea soluble epoxide hydrolase inhibitors” (Bioorg Med Chem Lett, 2013) are described below.

For data set [1], the target named is T1, Bifunctional epoxide hydrolase 2 (Homo sapiens, UniProt P34913).
T1 sequence (P34913 whole entry): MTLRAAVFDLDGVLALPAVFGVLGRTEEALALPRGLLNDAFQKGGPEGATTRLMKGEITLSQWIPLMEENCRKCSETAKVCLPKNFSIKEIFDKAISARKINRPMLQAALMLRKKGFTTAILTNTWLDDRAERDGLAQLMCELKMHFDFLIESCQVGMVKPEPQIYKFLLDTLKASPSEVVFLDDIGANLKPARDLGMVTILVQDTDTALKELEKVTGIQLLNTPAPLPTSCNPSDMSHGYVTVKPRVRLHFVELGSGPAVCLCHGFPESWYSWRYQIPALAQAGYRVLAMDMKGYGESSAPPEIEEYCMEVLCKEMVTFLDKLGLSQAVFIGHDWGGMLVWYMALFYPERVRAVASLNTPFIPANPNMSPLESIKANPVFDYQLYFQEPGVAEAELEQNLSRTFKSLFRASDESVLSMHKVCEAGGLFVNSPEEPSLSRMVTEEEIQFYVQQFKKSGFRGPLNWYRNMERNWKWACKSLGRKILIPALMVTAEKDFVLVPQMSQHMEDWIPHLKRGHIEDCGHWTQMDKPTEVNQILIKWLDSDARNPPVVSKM
Kind of data set: Inhibition of human sEH assessed as 6-methoxy-2-naphthaldehyde generation preincubated for 10 before addition of cyano(2-methyl-oxynaphthalen-6-yl)methyl trans-(3-phenyloxyran-2-yl) methyl carbonate by fluorescence analysis.

The next data set has as its system Liver microsomes. In words: Half life in human liver microsomes after 90 mins by LC/MS analysis. It counts as ADME, Microsome. Particulars: 1.5 h. (Microsomes from liver hold many membrane-bound enzymes, among them those of drug oxidation.)

Each structure is given as a SMILES string.

A word on the IC50: it is the concentration needed to halve the response being measured.

For `Cc1ccc(S(=O)(=O)N2CCC(C(=O)Nc3ccc4ncccc4c3)CC2)c(C)c1`, the IC50 in data set [1] amounted to 0.013 µM.
On the same count and under the same terms, to `COC(=O)c1ccc2cc(NC(=O)C3CCN(S(=O)(=O)c4ccc(C)cc4C)CC3)ccc2c1` belongs 0.11 µM.
Turning to `Cc1ccc(S(=O)(=O)N2CCC(C(=O)Nc3ccc4c(c3)OCO4)CC2)c(C)c1`, the IC50 in data set [1] is 0.0052 µM. Besides, the t1/2 with Liver microsomes turned out to be 46 min.
Turning to `Cc1ccc(S(=O)(=O)N2CCC(C(=O)NC3CC3)CC2)c(C)c1`, the t1/2 in the data set on Liver microsomes came out at 180 min.
For the compound `Cc1ccc(S(=O)(=O)N2CCC(C(=O)NC3CCCc4ccccc43)CC2)c(C)c1` (stereo unspecified), in data set [1], the half-maximal inhibitory concentration (IC50) was 0.041 µM.
The same measure, in the same setting: to `Cc1ccc(S(=O)(=O)N2CCC(C(=O)Nc3ccccc3)CC2)c(C)c1` belongs 0.0069 µM; to `Cc1ccc(S(=O)(=O)N2CCC(C(=O)Nc3ccccc3Cl)CC2)c(C)c1`, 0.0087 µM.
On the same count and under the same terms, to `Cc1ccc(S(=O)(=O)N2CCC(C(=O)Nc3ccccc3C)CC2)c(C)c1` belongs 0.02 µM; to `COc1ccc(NC(=O)C2CCN(S(=O)(=O)c3ccc(C)cc3C)CC2)cc1`, 0.025 µM; to `Cc1ccc(S(=O)(=O)N2CCC(C(=O)Nc3ccc(Oc4ccccc4)cc3)CC2)c(C)c1`, 0.02 µM.
The same measure, in the same setting: to `Cc1ccc(S(=O)(=O)N2CCC(C(=O)Nc3ccc(C(=O)O)cc3)CC2)c(C)c1` belongs 0.017 µM.
`Cc1ccc(S(=O)(=O)N2CCC(C(=O)Nc3ccc([N+](=O)[O-])cc3)CC2)c(C)c1`: in data set [1], the concentration for half-maximal inhibition (IC50) is 0.012 µM.
Same read-out and setting: to `Cc1ccc(S(=O)(=O)N2CCC(C(=O)Nc3ccc(N4CCCCC4)c(C(N)=O)c3)CC2)c(C)c1` belongs 0.043 µM.
`Cc1ccc(S(=O)(=O)N2CCC(C(=O)Nc3ccc(C(C)C)cc3)CC2)c(C)c1`: the concentration for half-maximal inhibition (IC50) in data set [1] was 0.0067 µM. The compound also returned a t1/2 with Liver microsomes of 25 min.
As to `Cc1ccc(S(=O)(=O)N2CCC(C(=O)Nc3ccc(S(=O)(=O)C(F)(F)F)cc3)CC2)c(C)c1`, the IC50 in data set [1] was 0.0016 µM. The t1/2 in the data set on Liver microsomes is on record as 36 min.
Regarding `Cc1ccc(S(=O)(=O)N2CCC(C(=O)Nc3ccc(F)cc3)CC2)c(C)c1`, the IC50 in data set [1] came out at 0.29 µM.
On the same count and under the same terms, to `Cc1ccc(S(=O)(=O)N2CCC(C(=O)Nc3ccc(Br)cc3)CC2)c(C)c1` belongs 0.045 µM; to `Cc1ccc(S(=O)(=O)N2CCC(C(=O)Nc3ccc(Cl)c(C(F)(F)F)c3)CC2)c(C)c1`, 0.078 µM.
`Cc1ccc(S(=O)(=O)N2CCC(C(=O)Nc3ccc4ccccc4c3)CC2)c(C)c1`: the IC50 in data set [1] was found to be 0.0083 µM. Also, the t1/2 in the data set with Liver microsomes was 8.7 min.
With `Cc1ccc(S(=O)(=O)N2CCC(C(=O)Nc3cnc4ccccc4c3)CC2)c(C)c1`, the IC50 in data set [1] amounted to 0.0023 µM.
As to `Cc1ccc(S(=O)(=O)N2CCC(C(=O)Nc3cccc4cnccc34)CC2)c(C)c1`, the IC50 in data set [1] amounted to 0.023 µM. This compound gave a t1/2 with Liver microsomes of 220 min.
The like results for `Cc1ccc(S(=O)(=O)N2CCC(C(=O)Nc3ccc4cc(C(=O)O)ccc4c3)CC2)c(C)c1` were, in that order, 0.0006 µM and 36 min.
As for `COc1cc2c(cc1NC(=O)C1CCN(S(=O)(=O)c3ccc(C)cc3C)CC1)OCO2`, the IC50 in data set [1] was 30 µM.
On the same count and under the same terms, to `Cc1ccc(S(=O)(=O)N2CCC(C(=O)N[C@H]3C[C@@H]3c3ccccc3)CC2)c(C)c1` belongs 6.9 µM.
`Cc1ccc(S(=O)(=O)N2CCC(C(=O)NC3CCCC3)CC2)c(C)c1` came in with a t1/2 in the data set on Liver microsomes of 14 min.
On to `Cc1ccc(S(=O)(=O)N2CCC(C(=O)NC34CC5CC(CC(C5)C3)C4)CC2)c(C)c1`, for which the half-inhibitory concentration (IC50) in data set [1] was 0.0017 µM. The t1/2 in the data set on Liver microsomes amounted to 14 min.
Turning to `Cc1ccc(S(=O)(=O)N2CCC(C(=O)Nc3ccccc3F)CC2)c(C)c1`, in data set [1], the half-maximal inhibitory concentration (IC50) was 0.0011 µM.
For `Cc1ccc(S(=O)(=O)N2CCC(C(=O)Nc3ccccc3Br)CC2)c(C)c1`, the concentration for half-maximal inhibition (IC50) in data set [1] worked out at 0.0006 µM.
`Cc1ccc(S(=O)(=O)N2CCC(C(=O)Nc3ccccc3O)CC2)c(C)c1`: in data set [1], the IC50 amounted to 0.0012 µM. For the same compound, the t1/2 in the data set with Liver microsomes is on record as 2.4 min.
As for `Cc1ccc(S(=O)(=O)N2CCC(C(=O)Nc3ccc(O)cc3)CC2)c(C)c1`, the IC50 in data set [1] turned out to be 0.0004 µM.
With `COC(=O)c1ccc(NC(=O)C2CCN(S(=O)(=O)c3ccc(C)cc3C)CC2)cc1`, the IC50 in data set [1] stood at 0.0085 µM. In addition, the t1/2 in the data set with Liver microsomes is 3.7 min.
In the case of `Cc1ccc(S(=O)(=O)N2CCC(C(=O)Nc3ccc(OC(F)(F)F)cc3)CC2)c(C)c1`, the IC50 in data set [1] came to 0.023 µM.
On to `Cc1ccc(S(=O)(=O)N2CCC(C(=O)Nc3ccc(N4CCCCC4)cc3)CC2)c(C)c1`, for which the half-maximal inhibitory concentration (IC50) in data set [1] turned out to be 0.02 µM.
Still for that read-out and setting: to `Cc1ccc(S(=O)(=O)N2CCC(C(=O)Nc3ccc(N4CCOCC4)cc3)CC2)c(C)c1` belongs 0.25 µM.
The same measure, in the same setting: to `Cc1ccc(S(=O)(=O)N2CCC(C(=O)Nc3ccc(C(F)(F)F)cc3)CC2)c(C)c1` belongs 0.03 µM.
The same measure, in the same setting: to `Cc1ccc(S(=O)(=O)N2CCC(C(=O)Nc3cccc(C(F)(F)F)c3)CC2)c(C)c1` belongs 0.64 µM; to `Cc1ccc(S(=O)(=O)N2CCC(C(=O)Nc3ccc(Cl)cc3)CC2)c(C)c1`, 2.2 µM; to `Cc1ccc(S(=O)(=O)N2CCC(C(=O)Nc3cc(Cl)cc(Cl)c3)CC2)c(C)c1`, 0.025 µM.
Turning to `Cc1ccc(S(=O)(=O)N2CCC(C(=O)Nc3ccc(Cl)c(Cl)c3)CC2)c(C)c1`, the IC50 in data set [1] turned out to be 0.055 µM.
For the compound `Cc1ccc(S(=O)(=O)N2CCC(C(=O)Nc3cccc4cccnc34)CC2)c(C)c1`, the IC50 in data set [1] stood at 0.006 µM. In addition, the t1/2 with Liver microsomes was 11 min.
Take `Cc1ccc(S(=O)(=O)N2CCC(C(=O)NCC(C)C)CC2)c(C)c1`: the half-maximal inhibitory concentration (IC50) in data set [1] was found to be 0.018 µM.
